The test system of data set [1] is Pseudomonas aeruginosa. Kind of data set: Minimum inhibitory concentration (MIC) against Pseudomonas aeruginosa 1912E. The format is functional.
Data set [2] relates to Staphylococcus aureus. Description: Minimum inhibitory concentration (MIC) against Staphylococcus aureus 241. The format is functional.
In data set [3] the test system is Pseudomonas aeruginosa. Kind of data set: Minimum inhibitory concentration (MIC) against Pseudomonas aeruginosa 1912E.
Data set [4] has as its system Enterobacter cloacae. Kind of data set: Minimum inhibitory concentration (MIC) against Enterobacter cloacae P99. Format: functional.
Data set [5] in a line: maximum Plasma concentration in Rats was determined after Peroral administration. The format is ADME, organism-based. Further details: route oral. The settings on record: rat, po.
The test system of data set [6] is Klebsiella aerogenes. Kind of data set: Minimum inhibitory concentration (MIC) against Klebsiella aerogenes 1082E. The format is functional.
Data set [7] relates to Escherichia coli. Kind of data set: Minimum inhibitory concentration (MIC) against Escherichia coli 851E.
Data set [8] deals with Streptococcus pneumoniae. Kind of data set: Minimum inhibitory concentration (MIC) against Streptococcus pneumoniae 77A.
Data set [9] is described as follows: Half-life in Rats was determined after Peroral administration. The format is ADME, organism-based. Conditions: rat, in vivo, po.
Data set [10] has as its system Escherichia coli. Description: Minimum inhibitory concentration (MIC) against Escherichia coli 10536. The format is functional.
The subject of data set [11] is Escherichia coli. Description: Minimum inhibitory concentration (MIC) against Escherichia coli 3190Y. Format: functional.
A short description of data set [12]: Area under curve was determined in Rats after peroral administration. Conditions: rat, in vivo, po. Format: ADME, organism-based.
Data set [13] is filed under the species Mus musculus. Description: 50% Effective Dose against systemic infection in mouse by Escherichia coli 851E. Format: functional.
A short description of data set [14]: Tmax was determined in Rats after Peroral administration. Format: ADME, organism-based. Conditions: rat, in vivo, po.
Data set [15] concerns Staphylococcus epidermidis. Description: Minimum inhibitory concentration (MIC) against Staphylococcus epidermidis 178. The format is functional.
Data set [16] deals with Staphylococcus aureus. Description: Minimum inhibitory concentration (MIC) against Staphylococcus aureus 6538p. The format is functional.
The test system of data set [17] is Staphylococcus aureus. Kind of data set: Minimum inhibitory concentration (MIC) against Staphylococcus aureus giorgio. Format: functional.
The subject of data set [18] is Staphylococcus epidermidis. Kind of data set: Minimum inhibitory concentration (MIC) against Staphylococcus epidermidis 887E. Format: functional.
Data set [19] deals with Escherichia coli. Description: Minimum inhibitory concentration (MIC) against Escherichia coli TEM9 2639E. Format: functional.
The species named for data set [20] is Mus musculus. Kind of data set: 50% Effective Dose against systemic infection in mouse by Pseudomonas aeruginosa 1912E. The format is functional.
Data set [21] in a line: Oral bioavailability in rat. Format: ADME, organism-based. Conditions: in vivo.
Data set [22] concerns Enterococcus faecalis. Kind of data set: Minimum inhibitory concentration (MIC) against Streptococcus faecalis 29212. Format: functional.
In data set [23] the test system is Acinetobacter calcoaceticus. Kind of data set: Minimum inhibitory concentration (MIC) against Acinetobacter calcoaceticus 15473. The format is functional.
The species named for data set [24] is Mus musculus. Kind of data set: 50% Effective Dose against systemic infection in mouse by Staphylococcus aureus giorgo. Format: functional.
In data set [25] the test system is Bacillus subtilis. Description: Minimum inhibitory concentration (MIC) against Bacillus subtilis ATCC 6633. Format: functional.
The test system of data set [26] is Staphylococcus aureus. Kind of data set: Minimum inhibitory concentration (MIC) against Staphylococcus aureus giorgo.
Data set [27] has as its system Acinetobacter calcoaceticus. Description: Minimum inhibitory concentration (MIC) against Acinetobacter calcoaceticus. The format is functional.
The subject of data set [28] is Acinetobacter calcoaceticus. Description: Minimum inhibitory concentration (MIC) against Acinetobacter calcoaceticus 5473. Format: functional.
Data set [29] is described as follows: Tmax was determined in dogs after Peroral administration. The format is ADME, organism-based, Canis lupus familiaris. The settings on record: dog, in vivo, po.
The species entered for data set [30] is Mus musculus. Kind of data set: Minimum inhibitory concentration (MIC) against systemic infection in mouse by Streptococcus pneumoniae 77A. Format: functional.
The species entered for data set [31] is Mus musculus. Description: 50% Effective dose against systemic Infection in mouse by Escherichia coli 851E. Format: functional.
Data set [32] is described as follows: maximum Plasma concentration in Dog was determined after Peroral administration. Format: ADME, organism-based, Canis lupus familiaris. Further details: route oral. The settings on record: po.
The species named for data set [33] is Mus musculus. Description: 50% Effective dose against systemic Infection in mouse by Pseudomonas aeruginosa 1912E. The format is functional.
Data set [34] is filed under the species Mus musculus. Kind of data set: 50% Effective dose against systemic Infection in mouse by Staphylococcus aureus giorgio. The format is functional.
Data set [35] is filed under the species Mus musculus. Description: Minimum inhibitory concentration (MIC) against systemic infection in mouse by Staphylococcus aureus giorgio. Format: functional.
Data set [36] is described as follows: Oral Bioavailability was determined in Dogs after Peroral administration. Conditions: dog, in vivo. The format is ADME, organism-based, Canis lupus familiaris.
Data set [37] can be described thus: Half-life in Dogs was determined after Peroral administration. Format: ADME, organism-based, Canis lupus familiaris. The settings on record: dog, in vivo, po.
The species named for data set [38] is Mus musculus. Description: 50% Effective dose against systemic Infection in mouse by Streptococcus pneumoniae 77A. The format is functional.
Data set [39] in a line: Area under curve was determined in Dogs after peroral administration. Format: ADME, organism-based, Canis lupus familiaris. The settings on record: dog, in vivo, po.
Where [40] appears, read: Pseudomonas aeruginosa, read-out: MIC.
Where [41] appears, read: Staphylococcus aureus, read-out: MIC.
The mark [42] stands for this setting: Klebsiella aerogenes, read-out: MIC.
Where [43] appears, read: Staphylococcus epidermidis, read-out: MIC.
The mark [44] stands for this setting: Escherichia coli, read-out: MIC.
Setting [45] is: Enterococcus faecalis, read-out: MIC.

SMILES strings stand for the structures. In brackets after ≈: the same amount, converted by molar mass. Some results are limits rather than exact numbers.

Take `NCC1CCN(c2nc3c(cc2F)c(=O)c(C(=O)O)cn3C2CC2)C1` (centres undefined): the MIC in data set [1] (setting [40]) came out at 0.5 µg/mL (≈ 1.44 µM); in data set [2] (setting [41]), 16 µg/mL (≈ 46.2 µM); in [3] it was 0.5 µg/mL (≈ 1.44 µM); in data set [4], 0.031 µg/mL (≈ 0.0895 µM); in data set [6] (setting [42]), 0.063 µg/mL (≈ 0.182 µM); in data set [7] it was 0.031 µg/mL (≈ 0.0895 µM). The MIC in data set [8] is 0.063 µg/mL (≈ 0.182 µM); in data set [10], 0.031 µg/mL (≈ 0.0895 µM); in [11] it was under 0.008 µg/mL; in data set [15] (setting [43]), 32 µg/mL (≈ 92.4 µM); in data set [16] it was 0.031 µg/mL (≈ 0.0895 µM); in data set [17], 0.031 µg/mL (≈ 0.0895 µM). In addition, the MIC in data set [18] is 0.016 µg/mL (≈ 0.0462 µM); in [19] (setting [44]), 0.063 µg/mL (≈ 0.182 µM); in [22] (setting [45]), 0.13 µg/mL (≈ 0.375 µM); in data set [23] (Acinetobacter calcoaceticus, read-out: MIC) it was 0.13 µg/mL (≈ 0.375 µM); in data set [25] it was 0.016 µg/mL (≈ 0.0462 µM); in [26] it was 0.031 µg/mL (≈ 0.0895 µM). Further, in [5], the Cmax is 300 ng/mL. For the same molecule, in [9], the half-life was 2.2 h. In addition, in data set [12], the AUC was 380 ng·h/mL. For the same molecule, the ED50 was over 13.5 mg/kg in data set [13], 29.8 mg/kg in [20] and 8.03 mg/kg in data set [24]. For the same molecule, the Tmax in data set [14] was determined as 0.17 h. Further, the bioavailability in data set [21] was determined as 10.1%.

For the molecule `CO/N=C1\CN(c2c(F)cc3c(=O)c(C(=O)O)cn(C4CC4)c3c2F)CC1CN` (centres undefined), the MIC in [1] (setting [40]) is 0.25 µg/mL (≈ 0.615 µM); in data set [2] (setting [41]) it was 0.5 µg/mL (≈ 1.23 µM); in data set [4], 0.016 µg/mL (≈ 0.0394 µM); in [6] (setting [42]) it was 0.031 µg/mL (≈ 0.0763 µM); in data set [10], under 0.008 µg/mL; in data set [11], under 0.008 µg/mL. Besides, the MIC in [15] (setting [43]) was 0.5 µg/mL (≈ 1.23 µM); in data set [16], under 0.008 µg/mL; in data set [27] it was 0.031 µg/mL (≈ 0.0763 µM); in [17], under 0.008 µg/mL; in [18], under 0.008 µg/mL; in [19] (setting [44]), 0.031 µg/mL (≈ 0.0763 µM). Further, the MIC is 0.031 µg/mL (≈ 0.0763 µM) in [22] (setting [45]) and under 0.008 µg/mL in data set [25].

For the molecule `CO/N=C1\CN(c2cc3c(cc2F)c(=O)c(C(=O)O)cn3C2CC2)CC1CN` (centres undefined), the MIC in data set [1] (setting [40]) is 0.25 µg/mL (≈ 0.644 µM); in data set [2] (setting [41]), 4 µg/mL (≈ 10.3 µM); in [4], 0.008 µg/mL (≈ 0.0206 µM); in data set [6] (setting [42]) it was 0.031 µg/mL (≈ 0.0798 µM); in data set [10], under 0.008 µg/mL; in data set [11], under 0.008 µg/mL. For the same molecule, the minimum inhibitory concentration (MIC) in [15] (setting [43]) stood at 4 µg/mL (≈ 10.3 µM); in data set [16] it was 0.008 µg/mL (≈ 0.0206 µM); in [17], 0.016 µg/mL (≈ 0.0412 µM); in data set [18] it was 0.016 µg/mL (≈ 0.0412 µM); in data set [19] (setting [44]) it was 0.031 µg/mL (≈ 0.0798 µM); in [22] (setting [45]), 0.031 µg/mL (≈ 0.0798 µM). In addition, the minimal inhibitory concentration (MIC) in data set [28] was 0.13 µg/mL (≈ 0.335 µM); in data set [25], under 0.008 µg/mL.

Turning to `CO/N=C1\CN(c2nc3c(cc2F)c(=O)c(C(=O)O)cn3C2CC2)CC1CN` (stereo in doubt; 20) [GEMIFLOXACIN], the MIC in data set [1] is 0.25 µg/mL (≈ 0.642 µM); in data set [2], 4 µg/mL (≈ 10.3 µM); in data set [3] it was 0.25 µg/mL (≈ 0.642 µM); in data set [30] it was 0.016 µg/mL (≈ 0.0411 µM); in data set [6] it was 0.031 µg/mL (≈ 0.0796 µM); in [7], under 0.008 µg/mL. Besides, the MIC is 4 µg/mL (≈ 10.3 µM) in [15]; 0.031 µg/mL (≈ 0.0796 µM) in data set [19]; 0.063 µg/mL (≈ 0.162 µM) in [22]; under 0.008 µg/mL in [35]; 0.063 µg/mL (≈ 0.162 µM) in data set [23]. Also, the figures for the time of peak concentration (Tmax) in data set [29] and in [14] were 1.13 h and 0.33 h, respectively. The Cmax in data set [5] stood at 2440 ng/mL; in data set [32], 1340 ng/mL. In addition, the half-life is 2.33 h in data set [9] and 5.12 h in [37]. Also, the 50% effective dose (ED50) in data set [31] is 0.47 mg/kg; in data set [33], 2.08 mg/kg; in data set [34], 1.17 mg/kg; in data set [38], 7.64 mg/kg. Besides, the exposure (AUC) in data set [12] stood at 8500 ng·h/mL; in data set [39], 7550 ng·h/mL. Also, the bioavailability is 95.3% in data set [21] and 71% in [36].

As a reminder, the MIC is the lowest concentration found to suppress growth. Usually Cmax stands for the peak of the concentration-time curve. By half-life is commonly meant the time in which the quantity being followed falls by half. In general, AUC refers to the area under the concentration-time curve, a measure of exposure. One may read the ED50 as the dose at which the effect has come halfway, by size or by number of responders. Read a low ED50 as an effect at a small dose. As a reminder, the Tmax is the time at which the peak concentration occurs. The term bioavailability denotes the share of a dose that reaches the circulation, judged against a reference dose that is usually intravenous. Lower therefore signals poor availability.

The values are drawn from ChEMBL document CHEMBL1130203, “Novel fluoroquinolone antibacterial agents containing oxime-substituted (aminomethyl)pyrrolidines: synthesis and antibacterial activity of 7-(4-(aminomethyl)-3-(methoxyimino)pyrrolidin-1-yl)-1-cyclopropyl-6- fluoro-4-oxo-1,4-dihydro[1,8]naphthyridine-3-carboxylic acid (LB20304)” (J Med Chem, 1997).
